Columns and labels:
[1] = tested on: children diagnosed as having autism; experiment: Fecal Chymotrypsin Test before and after secretin infusion in 16 autistic children (Experiment 1); assay type: in vivo, human; conditions: each of 16 autistic children; approximately one week after first secretin infusion, 1 U/kg IV
Protocol: (§1) In this experiment, 16 children diagnosed as having autism were administered the following Fecal Chymotrypsin Test in accordance with an embodiment of the invention. First, approximately 2 grams of stool were collected from each child and placed in a sterile container (although it is to be understood that any quantity of stool may be collected, as 2 grams of stool is not a required amount). Each stool sample was then analyzed using, e.g., an enzymatic photospectrometry analysis as is known by those skilled in the art, to determine the level of fecal chymotrypsin in the stool. Although the enzymatic photospectrophotometry process is preferred, any suitable conventional method may be used for measuring the fecal chymotrypsin levels. The measured chymotrypsin levels of the 16 autistic children are illustrated in FIG. 13.
After determining the chymotrypsin levels of the stools, each of these levels were compared with threshold chymotrypsin levels to determine if the child was likely to benefit from secretin administration. By way of example, with the fecal chymotrypsin tests of the stool samples being performed at 30° C., normal levels of chymotrypsin are deemed to lie above 8.4 U/gram, whereas pathologically abnormal levels are deemed to lie below 4.2 U/gram. […]

[2] = tested on: autistic children with abnormal fecal chymotrypsin levels; experiment: Fecal chymotrypsin levels of 37 autistic children administered secretin over 6 months (Experiment 2); assay type: in vivo, human; conditions: 6 Months Post-Secretin Administration, of 37 children
Protocol: as §1
After determining the chymotrypsin levels of the stools, each of these levels were compared with threshold chymotrypsin levels to determine if the child was likely to benefit from secretin administration. By way of example, with the fecal chymotrypsin tests of the stool samples being performed at 30° C., normal levels of chymotrypsin are deemed to lie above 8.4 U/gram, whereas pathologically abnormal levels are deemed to lie below 4.2 U/gram. In addition, chymotrypsin levels between 8.4 U/gram and 4.2 U/gram are considered equivocal, and further testing of the individual's fecal chymotrypsin levels over a period of time should be performed.
A preferred secretin infusion process includes the initial step of prepping an arm of the candidate child with an IV injection of saline. A test dose of 1 U of Secretin-Ferring is then administered to the child. […]
In this experiment, 37 autistic children with abnormal fecal chymotrypsin levels were administered secretin over the course of 6 months using the secretin infusion process described above. Their fecal chymotrypsin (FC) levels were measured weekly using the fecal chymotrypsin test described above.

[3] = tested on: children diagnosed as having autism; experiment: CARS (Childhood Autism Rating Scale) test pre- and post-secretin administration (Experiment 1); assay type: in vivo, human; conditions: 16 autistic children
Protocol: Upon determining that a given child was likely to benefit from secretin administration based on the results of the fecal chymotrypsin test, the child was administered a CARS (Childhood Autism Rating Scale) test prior to being scheduled for secretin infusion.
For each of the 16 autistic children tested, a preferred secretin infusion process according to the present invention was performed involving the administering of 1 U/kg of body weight of Secretin-Ferring for a period of nine months at intervals of approximately 6 weeks. In addition, another CARS test was administered to each of the 16 autistic children 3 weeks post secretin administration to determine if their autism had changed post infusion.
A preferred secretin infusion process includes the initial step of prepping an arm of the candidate child with an IV injection of saline. A test dose of 1 U of Secretin-Ferring is then administered to the child. Approximately one minute after infusion, the child is examined for signs of allergic reaction including rash, increased heart rate, and increase of blood pressure. […] Subsequently, each child receives a 1 U/kg of body weight infusion of Secretin-Ferring approximately every 6 weeks for 9 months. It is to be understood that any commercially available form of secretin may be used.

[4] = tested on: children diagnosed with Autism; conditions: secretin given as diagnostic procedure during upper gastrointestinal endoscopy; Horvath et al. 1998; cited from earlier work

## secretin
[1]
  fecal chymotrypsin level post-secretin administration versus pre-secretin: increased
[2]; 0 equivocal pre-secretin
  # Autistic Children w/Equivocal FC levels: 2
[2]; 0 normal pre-secretin
  # Autistic Children w/normal FC levels: 34
[2]; 37 abnormal pre-secretin
  # Autistic Children w/Abnormal FC levels: 1
[3]; 3 weeks post infusion
  CARS component scores (except fear component): demonstrated improvement
[3]; approximately 3 weeks after first secretin administration
  overall CARS scores post-secretin versus pre-secretin: overall decrease
[4]
  symptoms associated with Autism: ameliorating the symptoms

From patent US20120207740A1, “Method for Treating Pervasive Development Disorders” (CUREMARK, LLC, priority 1999, published 2012)
